Residue numbers refer to the chain shown, from its start.
Experiments:
[1] = molecular target: T1, corn root FNR (ferredoxin:NADP+ reductase) (Zea mays, UniProt B4G043); experiment: anaerobic spectrophotometric titration, flavin charge-transfer bands; type: biochemical; details: 50 mM HEPES-NaOH, pH 7.0, 15 °C
T1 sequence (B4G043 66-381): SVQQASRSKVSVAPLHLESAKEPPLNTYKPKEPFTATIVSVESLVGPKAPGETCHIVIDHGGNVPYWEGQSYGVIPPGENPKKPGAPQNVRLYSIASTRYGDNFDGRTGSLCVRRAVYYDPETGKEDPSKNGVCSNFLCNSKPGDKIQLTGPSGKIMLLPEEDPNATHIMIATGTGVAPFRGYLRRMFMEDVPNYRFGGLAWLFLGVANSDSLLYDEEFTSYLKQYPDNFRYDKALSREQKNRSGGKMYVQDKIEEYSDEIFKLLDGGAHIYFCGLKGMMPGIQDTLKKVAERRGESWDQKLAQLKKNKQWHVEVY

[2] = molecular target: T2, corn root FNR (ferredoxin:NADP+ reductase) (Zea mays, UniProt B4G043, Y381S); experiment: anaerobic titration, visible absorption of FAD; type: binding
T2 sequence (B4G043 66-381 Y381S): T1 sequence (B4G043 66-381) with Y316S

[3] = molecular target: T2, corn root FNR (ferredoxin:NADP+ reductase); experiment: titration, visible absorption of FAD; type: binding

SMILES	Kd [3] [µM]	other results
NC(=O)C1=CN([C@@H]2O[C@H](COP(=O)(O)OP(=O)(O)OC[C@H]3O[C@@H](n4cnc5c(N)ncnc54)[C@H](OP(=O)(O)O)[C@@H]3O)[C@@H](O)[C@H]2O)C=CC1 [NADPH]	–	anaerobic spectrophotometric titration, flavin charge-transfer bands [1]: for wild-type the CTC-1 absorption band dominates
NC(=O)c1ccc[n+]([C@@H]2O[C@H](COP(=O)(O)OP(=O)(O)OC[C@H]3O[C@@H](n4cnc5c(N)ncnc54)[C@H](OP(=O)(O)O)[C@@H]3O)[C@@H](O)[C@H]2O)c1 [NADP^+]	–	Kd [2]: ≤ 0.02 µM
NC(=O)c1ccc[n+]([C@@H]2O[C@H](COP(=O)(O)OP(=O)(O)OC[C@H]3O[C@@H](n4cnc5c(N)ncnc54)[C@H](O)[C@@H]3O)[C@@H](O)[C@H]2O)c1 [NAD^+]	145 ± 5	–
NC(=O)c1cccnc1 [nicotinamide]	3000 ± 100	–

Reference: publication PMC5626627 (The FEBS journal, 2017)
